Results as given in US10711002B2, “Purine compounds and method for the treatment of cancer” (THE ROYAL INSTITUTION FOR THE ADVANCEMENT OF …, priority 2016, dated 2020).
One block for each molecule: values may come before it.

Tests used:
[1] = target: T1, AURKC (Aurora C) (Homo sapiens, UniProt Q9UQB9); assay: High-throughput kinase assay; format: biochemical; details: read-out: Percent inhibition of kinase activity in vitro, AURKC (Aurora C); for inhibition at 0.1 µM: 100 nM; for inhibition at 0.5 µM: 500 nM
T1 sequence (Q9UQB9 1-309): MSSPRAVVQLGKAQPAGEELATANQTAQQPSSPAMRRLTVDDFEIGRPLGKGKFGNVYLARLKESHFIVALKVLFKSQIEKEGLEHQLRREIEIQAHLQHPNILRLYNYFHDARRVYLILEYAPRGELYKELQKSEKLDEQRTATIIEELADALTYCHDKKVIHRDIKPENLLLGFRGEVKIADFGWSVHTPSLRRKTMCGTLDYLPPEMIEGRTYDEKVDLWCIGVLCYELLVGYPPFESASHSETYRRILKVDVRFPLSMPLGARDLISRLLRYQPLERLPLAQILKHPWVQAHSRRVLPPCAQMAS
Description: (§1) Screening of Compounds 1-4 against several kinases identified two prominent targets of these compounds as the Aurora A kinase and calcium dependent protein kinase C isoforms α, βI, βII and […] (Tables 1 to 3). IC50s for these two targets were obtained by plotting inhibition levels at 500 nM, 100 nM, 50 nM and 10 nM (FIG. 3). These kinases are directly involved in pathways controlling cell differentiation programs, metastasis signaling, as well as EMT and CSC programming and their overexpression was reported to predict decreased metastasis-free survival.

[2] = target: ERBB2 (HER2) (Homo sapiens, UniProt P04626); assay: High-throughput kinase assay; format: biochemical; details: 500 nM; read-out: Percent inhibition of kinase activity in vitro, ERBB2 (HER2)
Chain of ERBB2 (HER2) (P04626 23-1255): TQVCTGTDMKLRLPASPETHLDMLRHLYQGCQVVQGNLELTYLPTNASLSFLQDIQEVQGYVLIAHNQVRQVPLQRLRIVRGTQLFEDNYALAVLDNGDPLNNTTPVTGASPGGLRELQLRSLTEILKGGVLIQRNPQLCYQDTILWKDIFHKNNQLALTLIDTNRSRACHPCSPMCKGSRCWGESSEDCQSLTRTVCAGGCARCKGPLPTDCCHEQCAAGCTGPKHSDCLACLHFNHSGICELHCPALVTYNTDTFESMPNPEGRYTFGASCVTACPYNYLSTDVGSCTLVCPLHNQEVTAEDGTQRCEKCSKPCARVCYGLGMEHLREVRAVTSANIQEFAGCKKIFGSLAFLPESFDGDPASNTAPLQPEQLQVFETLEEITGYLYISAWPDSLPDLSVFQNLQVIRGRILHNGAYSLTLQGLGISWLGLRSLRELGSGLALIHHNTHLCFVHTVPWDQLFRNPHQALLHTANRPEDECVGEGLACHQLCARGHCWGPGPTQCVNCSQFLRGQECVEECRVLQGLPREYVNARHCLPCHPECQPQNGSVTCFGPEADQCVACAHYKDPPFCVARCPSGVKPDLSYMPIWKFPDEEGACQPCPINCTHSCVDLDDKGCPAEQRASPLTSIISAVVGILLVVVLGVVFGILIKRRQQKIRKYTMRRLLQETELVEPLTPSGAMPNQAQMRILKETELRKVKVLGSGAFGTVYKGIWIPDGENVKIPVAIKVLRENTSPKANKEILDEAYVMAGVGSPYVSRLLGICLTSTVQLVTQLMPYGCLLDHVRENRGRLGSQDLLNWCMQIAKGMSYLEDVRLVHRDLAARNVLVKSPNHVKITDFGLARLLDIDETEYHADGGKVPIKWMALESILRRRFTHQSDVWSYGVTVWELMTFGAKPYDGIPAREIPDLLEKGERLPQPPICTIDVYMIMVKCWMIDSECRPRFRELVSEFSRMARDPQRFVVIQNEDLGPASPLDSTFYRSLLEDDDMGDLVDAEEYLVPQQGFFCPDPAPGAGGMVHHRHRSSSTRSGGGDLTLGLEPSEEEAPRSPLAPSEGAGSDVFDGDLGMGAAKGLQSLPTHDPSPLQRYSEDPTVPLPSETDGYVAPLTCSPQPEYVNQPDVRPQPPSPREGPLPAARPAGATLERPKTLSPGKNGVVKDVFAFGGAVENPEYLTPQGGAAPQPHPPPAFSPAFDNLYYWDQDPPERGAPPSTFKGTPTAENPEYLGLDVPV
Description: as §1

[3] = target: PIK3CA/PIK3R1 (Homo sapiens, UniProt P42336); assay: High-throughput kinase assay; format: biochemical; details: read-out: Percent inhibition of kinase activity in vitro, PIK3CA/PIK3R1; for inhibition at 0.1 µM: 100 nM; for inhibition at 0.5 µM: 500 nM
Chain of PIK3CA/PIK3R1 (P42336 whole entry): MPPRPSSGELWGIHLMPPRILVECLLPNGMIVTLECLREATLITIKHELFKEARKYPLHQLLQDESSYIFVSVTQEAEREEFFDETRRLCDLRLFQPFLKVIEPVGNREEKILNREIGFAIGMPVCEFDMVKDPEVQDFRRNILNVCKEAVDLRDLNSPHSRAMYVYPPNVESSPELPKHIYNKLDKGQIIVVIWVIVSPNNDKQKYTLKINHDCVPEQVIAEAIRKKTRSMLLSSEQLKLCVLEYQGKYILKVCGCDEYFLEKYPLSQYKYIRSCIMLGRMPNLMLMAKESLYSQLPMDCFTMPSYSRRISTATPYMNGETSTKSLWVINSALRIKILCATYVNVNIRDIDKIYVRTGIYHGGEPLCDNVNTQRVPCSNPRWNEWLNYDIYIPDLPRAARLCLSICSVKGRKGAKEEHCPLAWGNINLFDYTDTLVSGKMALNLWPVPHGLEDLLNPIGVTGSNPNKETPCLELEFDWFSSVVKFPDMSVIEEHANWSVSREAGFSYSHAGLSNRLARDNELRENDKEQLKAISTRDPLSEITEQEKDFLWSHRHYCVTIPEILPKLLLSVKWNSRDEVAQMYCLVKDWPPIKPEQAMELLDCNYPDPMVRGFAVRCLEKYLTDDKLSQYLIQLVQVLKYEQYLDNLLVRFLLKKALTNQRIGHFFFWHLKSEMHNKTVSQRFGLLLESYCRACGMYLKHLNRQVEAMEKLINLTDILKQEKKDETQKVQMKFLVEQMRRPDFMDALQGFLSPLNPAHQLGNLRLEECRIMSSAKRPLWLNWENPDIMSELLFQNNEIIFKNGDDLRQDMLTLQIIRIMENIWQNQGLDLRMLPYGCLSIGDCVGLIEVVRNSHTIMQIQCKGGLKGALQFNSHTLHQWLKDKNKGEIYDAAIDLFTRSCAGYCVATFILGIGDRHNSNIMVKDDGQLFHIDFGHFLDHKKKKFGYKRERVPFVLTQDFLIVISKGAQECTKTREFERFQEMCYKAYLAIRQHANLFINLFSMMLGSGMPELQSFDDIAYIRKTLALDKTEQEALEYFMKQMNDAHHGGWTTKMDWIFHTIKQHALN
Chain of PIK3CA/PIK3R1 (P27986 whole entry partner): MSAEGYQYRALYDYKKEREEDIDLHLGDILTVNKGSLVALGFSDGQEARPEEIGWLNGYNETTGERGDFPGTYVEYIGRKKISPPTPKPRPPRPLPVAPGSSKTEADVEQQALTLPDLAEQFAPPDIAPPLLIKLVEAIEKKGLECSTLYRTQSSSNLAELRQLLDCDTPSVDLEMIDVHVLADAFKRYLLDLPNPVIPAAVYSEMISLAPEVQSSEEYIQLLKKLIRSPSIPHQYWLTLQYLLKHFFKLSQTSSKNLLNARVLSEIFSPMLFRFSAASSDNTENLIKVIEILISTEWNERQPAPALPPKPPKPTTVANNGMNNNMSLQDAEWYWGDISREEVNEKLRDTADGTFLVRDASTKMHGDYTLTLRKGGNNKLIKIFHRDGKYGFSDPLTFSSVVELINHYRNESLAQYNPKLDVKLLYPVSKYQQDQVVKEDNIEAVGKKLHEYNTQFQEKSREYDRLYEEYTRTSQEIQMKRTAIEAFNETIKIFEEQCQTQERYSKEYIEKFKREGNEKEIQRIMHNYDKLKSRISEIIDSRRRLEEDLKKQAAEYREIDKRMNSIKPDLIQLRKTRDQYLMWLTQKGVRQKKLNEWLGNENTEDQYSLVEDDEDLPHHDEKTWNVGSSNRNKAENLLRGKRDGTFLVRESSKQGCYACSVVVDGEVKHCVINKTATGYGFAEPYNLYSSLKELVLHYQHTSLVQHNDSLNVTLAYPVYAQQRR
Description: as §1

[4] = target: PRKCA (PKC alpha) (Homo sapiens, UniProt P17252); assay: High-throughput kinase assay; format: biochemical; details: for inhibition at 0.05 µM: 50 nM; for inhibition at 0.1 µM: 100 nM; for inhibition at 0.5 µM: 500 nM
Description: as §1

[5] = target: T2, PRKCE (PKC epsilon) (Homo sapiens, UniProt Q02156); assay: High-throughput kinase assay; format: biochemical; details: 50 nM; read-out: Percent inhibition of kinase activity in vitro, PRKCE (PKC epsilon)
T2 sequence (Q02156 1-737): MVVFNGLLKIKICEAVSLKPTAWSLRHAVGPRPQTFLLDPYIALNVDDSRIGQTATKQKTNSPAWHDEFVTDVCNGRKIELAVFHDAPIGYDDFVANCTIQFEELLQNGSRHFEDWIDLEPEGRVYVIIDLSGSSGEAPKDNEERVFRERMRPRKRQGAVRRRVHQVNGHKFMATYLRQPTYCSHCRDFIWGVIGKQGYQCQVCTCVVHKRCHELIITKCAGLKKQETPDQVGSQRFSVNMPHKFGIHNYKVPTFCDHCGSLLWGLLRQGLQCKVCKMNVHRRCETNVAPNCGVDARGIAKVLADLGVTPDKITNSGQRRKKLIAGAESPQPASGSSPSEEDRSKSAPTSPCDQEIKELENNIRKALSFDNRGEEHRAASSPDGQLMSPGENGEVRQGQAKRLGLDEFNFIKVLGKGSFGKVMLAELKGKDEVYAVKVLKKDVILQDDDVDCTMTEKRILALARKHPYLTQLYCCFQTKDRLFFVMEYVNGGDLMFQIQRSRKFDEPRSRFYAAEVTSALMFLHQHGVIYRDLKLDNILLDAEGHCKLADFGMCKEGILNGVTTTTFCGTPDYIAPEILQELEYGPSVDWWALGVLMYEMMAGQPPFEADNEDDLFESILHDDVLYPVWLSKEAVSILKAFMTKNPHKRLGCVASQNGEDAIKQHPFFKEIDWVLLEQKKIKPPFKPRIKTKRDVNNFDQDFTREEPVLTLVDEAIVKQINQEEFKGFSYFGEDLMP
Description: as §1

[6] = target: T3, PRKCZ (PKC zeta) (Homo sapiens, UniProt Q05513); assay: High-throughput kinase assay; format: biochemical; details: 50 nM; read-out: Percent inhibition of kinase activity in vitro, PRKCZ (PKC zeta)
T3 sequence (Q05513 1-592): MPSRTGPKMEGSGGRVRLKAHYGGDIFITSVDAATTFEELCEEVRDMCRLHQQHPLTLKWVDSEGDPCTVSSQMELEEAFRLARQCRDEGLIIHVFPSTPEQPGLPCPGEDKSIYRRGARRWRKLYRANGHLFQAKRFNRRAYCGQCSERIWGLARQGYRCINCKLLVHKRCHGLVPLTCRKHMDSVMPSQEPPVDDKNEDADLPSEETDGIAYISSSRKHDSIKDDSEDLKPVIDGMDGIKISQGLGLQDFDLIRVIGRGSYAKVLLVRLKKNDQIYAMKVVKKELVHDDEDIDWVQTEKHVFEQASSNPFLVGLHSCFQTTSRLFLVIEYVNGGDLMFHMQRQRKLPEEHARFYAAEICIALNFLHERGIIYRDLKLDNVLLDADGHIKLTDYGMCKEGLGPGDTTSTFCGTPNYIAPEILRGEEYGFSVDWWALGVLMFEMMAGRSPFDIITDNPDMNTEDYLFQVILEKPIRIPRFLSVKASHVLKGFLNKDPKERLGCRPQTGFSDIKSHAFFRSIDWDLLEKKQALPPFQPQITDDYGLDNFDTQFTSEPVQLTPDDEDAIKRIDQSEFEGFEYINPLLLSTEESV
Description: as §1

[7] = target: RAF1 (cRAF) Y340D Y341D (Homo sapiens, UniProt P04049, Y340D/Y341D); assay: High-throughput kinase assay; format: biochemical; details: 500 nM; read-out: Percent inhibition of kinase activity in vitro, RAF1 (cRAF) Y340D Y341D
Chain of RAF1 (cRAF) Y340D Y341D (P04049 whole entry Y340D/Y341D): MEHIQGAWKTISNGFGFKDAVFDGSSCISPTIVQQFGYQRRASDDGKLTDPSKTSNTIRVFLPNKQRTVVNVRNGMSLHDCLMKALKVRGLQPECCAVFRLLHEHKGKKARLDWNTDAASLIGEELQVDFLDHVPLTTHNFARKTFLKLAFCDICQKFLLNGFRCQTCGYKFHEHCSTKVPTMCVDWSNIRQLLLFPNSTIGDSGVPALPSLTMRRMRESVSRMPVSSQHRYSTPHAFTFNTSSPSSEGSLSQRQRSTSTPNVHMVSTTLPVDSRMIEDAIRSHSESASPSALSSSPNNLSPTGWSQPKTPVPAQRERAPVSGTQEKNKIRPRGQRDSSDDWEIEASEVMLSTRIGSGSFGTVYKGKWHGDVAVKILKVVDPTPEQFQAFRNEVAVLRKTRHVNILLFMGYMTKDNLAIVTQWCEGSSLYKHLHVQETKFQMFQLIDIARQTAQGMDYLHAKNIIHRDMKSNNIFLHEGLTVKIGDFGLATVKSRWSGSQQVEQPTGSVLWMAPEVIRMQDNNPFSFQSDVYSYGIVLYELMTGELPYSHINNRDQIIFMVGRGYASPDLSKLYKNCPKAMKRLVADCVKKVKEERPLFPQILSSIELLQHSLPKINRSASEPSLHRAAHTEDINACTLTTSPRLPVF
Description: as §1

[8] = tested on: Mia-PaCa (human pancreatic carcinoma); assay: In vivo primary tumor growth, subcutaneous implant; set-up: species or system SCID mice
Description: In vivo studies were approved by McGill Animal Care Committee. Cells growing in exponential phase of growth (1×10^6 cells/mouse) were transplanted into the mammary fat pad of female SCID (MDA231/M) or Balb/c (4T1) mice. Mia-PaCa cells and RENCA cells were implanted subcutaneously in SCID or Balb/c mice respectively. When primary tumors became palpable mice were randomized and blindly assigned treatment groups. Treatment was given PO for 4 cycles (3 times a week: day 1, day 3, day 5) (n=8-10 mice per condition). Control mice received the vehicle alone (1% DMSO in physiologic solution). […] Tumor size was measured using a caliper. At the study termination (60-90 days) primary tumors were excised and weighted. The lungs were fixed in 10% Bouin's fixative and lung surface metastases were counted using a stereomicroscope.

[9] = read-out: Percent inhibition of kinase activity in vitro, PRKCA (PKC alpha)

Compound: O=c1c2ccccc2[se]n1-c1nc(NC2CCCCC2)c2nc[nH]c2n1 [Compound 1]
inhibition at 0.1 µM [1]: 2%
inhibition at 0.5 µM [1]: 10%
inhibition at 0.5 µM [2]: 0%
inhibition at 0.1 µM [3]: 0%
inhibition at 0.5 µM [3]: 61%
inhibition at 0.05 µM [4, 9]: 68%
inhibition at 0.1 µM [4, 9]: 83%
inhibition at 0.5 µM [4, 9]: 98%
inhibition at 0.05 µM [5]: 6%
inhibition at 0.05 µM [6]: 9%
inhibition at 0.5 µM [7]: 4%

Compound: O=c1c2ccccc2[se]n1-c1nc(NC2CC[Se]C2)c2nc[nH]c2n1 (stereo not shown) [Compound 2]
inhibition at 0.1 µM [1]: 0%
inhibition at 0.5 µM [1]: 11%
inhibition at 0.5 µM [2]: 0%
inhibition at 0.1 µM [3]: 0%
inhibition at 0.5 µM [3]: 62%
inhibition at 0.1 µM [4, 9]: 84%
inhibition at 0.5 µM [4, 9]: 96%
inhibition at 0.5 µM [7]: 0%

Compound: C[C@@H]1C(Nc2nc(-n3[se]c4ccccc4c3=O)nc3[nH]cnc23)C[C@H]2C[C@@H]1C2(C)C (stereo partly shown) [Compound 3]
inhibition at 0.1 µM [1]: 0%
inhibition at 0.5 µM [1]: 7%
inhibition at 0.5 µM [2]: 2%
inhibition at 0.1 µM [3]: 12%
inhibition at 0.5 µM [3]: 53%
inhibition at 0.1 µM [4, 9]: 45%
inhibition at 0.5 µM [4, 9]: 86%
inhibition at 0.5 µM [7]: 10%

Compound: O=c1c2ccccc2[se]n1-c1nc(N[C@H]2CC[Se]C2)c2nc[nH]c2n1 [Compound 4]
inhibition at 0.1 µM [1]: 0%
inhibition at 0.1 µM [3]: 0%
inhibition at 0.01 µM ([4]; 10 nM, read-out: Percent inhibition of kinase activity in vitro, PRKCA (PKC alpha)): 22%
inhibition at 0.05 µM [4, 9]: 101%
inhibition at 0.1 µM [4, 9]: 98%
IC50 ([4]; from inhibition levels at 500, 100, 50 and 10 nM): 0.0109 µM
inhibition at 0.05 µM [5]: 5%
inhibition at 0.05 µM [6]: 12%
Primary tumor weight ([8]; Mia-PaCa subcutaneous in SCID mice, PO, at study termination): 0.6 ± 0.14 g
pancreatic cancer cell (Mia-PaCa) growth in vivo ([8]; mouse, in vivo): able to inhibit

inhibition at 0.1 µM [1]: 0%
inhibition at 0.1 µM [3]: 0%
inhibition at 0.05 µM [4, 9]: 14%
inhibition at 0.1 µM [4, 9]: 0%
inhibition at 0.05 µM [5]: 4%
inhibition at 0.05 µM [6]: 9%
Compound: O=C1c2ccccc2CN1c1nc(NC2CCCCC2)c2nc[nH]c2n1 [SLLN-6C, reference compound]
